Test system: mosquitoes
Test: in vivo direct skin application bioassay
Settings: 12.5% application rate
Description: Direct skin application bioassays were conducted by using a powder-free latex glove (Diamond Grip, Microflex Corporation, Reno, Nev.). An opening of 3×4 cm was cut through the glove to fit on dorsal surface of the hand (FIG. 1). After wearing the glove, a wristband was used to avoid the biting on the hand near the border of the glove. Approximately, 500 (±5%), consisting primarily of females were transferred to a test cage (45×45×45 cm) using an aspirator. A series of dosages were tested to determine MED for repellency as well as residual activity against mosquitoes. A single test consisted of covering the hand of a volunteer with a powder-free latex glove and treating 12 cm^2 surface area, cut through the glove, on dorsal surface of the hand. Marked skin surface area was treated with the test compound in 50 μl of total volume. Because of constrain of man power, only one volunteer who was provided with a written informed consent participated in this study. A protocol approved by the University of Mississippi Human Use Institutional Review Board (IRB protocol #15-070) was followed.
The test started when the hand treated (3×4 cm area cut through the glove on the dorsal surface) with a test compound was inserted into the mosquito cage. […] Any treatment with […] females biting during 1 min test period was considered as “passed” whereas a treatment with ≥5 bites out of 500 mosquitoes was considered as “failed”. In case of passing the next lower and in case of failure next higher serial dose was tested to reach MED. Additionally, data on the residual repellent activity was recorded by exposing the treatments to the females after every 30 minutes until the treatment failed. Carrot essential oil, carotol and DEET and the mixtures were tested.
Direct skin application bioassays were conducted by using a powder-free latex glove (Diamond Grip™, Microflex Corporation, Reno, Nev.). An opening of 3×4 cm was cut through the glove to fit on the dorsal surface of the hand. After donning the glove, a wristband was used to avoid biting on the hand near the border of the glove. Approximately 500 (±5%) mosquitoes, consisting primarily of females, were transferred to a test cage (45×45×45 cm) using an aspirator. A series of dosages were tested to determine MED for repellency as well as residual activity against mosquitoes.
A single test consisted of covering the hand of a volunteer with a powder-free latex glove and treating a 12 cm^2 surface area, cut through the glove, on the dorsal surface of the hand. Marked skin surface area was treated with the test compound in 50 μl of total volume. Because of constraints of man power, only one volunteer who was provided with a written informed consent participated in this study. A protocol approved by the University of Mississippi Human Use Institutional Review Board (IRB Protocol #15-070) was followed.
The test started when the hand treated (3×4 cm area cut through the glove on the dorsal surface) with a test compound was inserted into the mosquito cage. […] Any treatment with ≤5 females biting during the 1 min test period was considered as “passed”, whereas a treatment with ≥5 bites out of 500 mosquitoes was considered as “failed”. In case of passing, the next lower, and in case of failure, the next higher, serial dose was tested to reach MED. Additionally, data on the residual repellent activity were recorded by exposing the treatments to the females after every 30 minutes until the treatment failed. Carrot seed essential oil, carotol, geranium and lemon Eucalyptus essential oils, DEET, picaridin and the mixtures were tested.

`CCCCCCCCCCC(=O)O` [Undecanoic acid, undecanoic acid, reference compound] was tested, and the “residual activity: time post application at which MED reached/crossed” value was 1.5 h.

— patent US11064704B2, “Natural product formulations with improved residual insect repellent/deterrent activity” (University of Mississippi, priority 2016, dated 2021)
